# Entries after “also recorded” stand apart in the source; their conditions may differ.
# Key:
# Type in all cases: cell-based
# mouse Olfr73 [1] = biological target: T1, mouse Olfr73 (Mus musculus, UniProt Q920P2); assay: GCaMP3 calcium imaging of mouse OSNs ectopically expressing Olfr73 (rAAV2/5), 5-s odorant pulse; conditions: for Effect on the response to eugenol in a binary mix: eugenol 100 µM or 10 µM plus putative antagonist; for Agonism/antagonism, OSN Ca2+ Mouse: strong agonist 100 µM, putative antagonist 1 mM, single or as pair
# T1 sequence (Q920P2 1-313): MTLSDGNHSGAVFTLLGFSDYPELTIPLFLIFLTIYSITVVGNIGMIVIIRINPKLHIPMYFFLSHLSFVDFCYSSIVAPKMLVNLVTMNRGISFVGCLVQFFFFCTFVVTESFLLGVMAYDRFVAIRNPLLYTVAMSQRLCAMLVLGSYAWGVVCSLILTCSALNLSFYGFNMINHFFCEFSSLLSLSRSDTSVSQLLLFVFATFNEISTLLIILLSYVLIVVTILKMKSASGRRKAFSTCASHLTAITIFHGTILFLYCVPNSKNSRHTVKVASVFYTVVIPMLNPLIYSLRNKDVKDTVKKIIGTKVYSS
# mouse Olfr73 [2] = biological target: T1, mouse Olfr73; assay: Cre-SEAP cAMP reporter assay, HEK293 cells co-expressing untagged Olfr73 and Gs/olf, prolonged odorant
# Description: cAMP production was measured as previously described. HEK293T cells were co-transfected with a guanine nucleotide exchange factor Ric-8b (50 ng; a gift from Dr. Malnic, Universidade de São Paulo, Brazil), Gαolf (50 ng), RTP1s (100 ng) and untagged Olfr73 (1.5 μg). Cells were also transfected with 1.5 μg of a pCRE-SEAP, where the expression of the secreted alkaline phosphatase (SEAP) is under regulation of the cAMP responsive element. A plasmid pTAL-SEAP missing the Cre element was used as a negative control. Cells were also transfected with 50 ng of a pcDNA5/TO/LacZ (Invitrogen) for DNA concentration normalization. At 24 h post-transfection, the cells were re-seeded for SEAP analysis and odorants were added at the indicated dilutions at 48 h post-transfection. […] The supernatants were incubated for 30 min at 65 °C and then frozen until analysis. The cell pellets were washed with PBS and then lysed with reporter lysis buffer for β-galactosidase measurement following the manufacturer’s instructions (Promega). SEAP activity was measured by mixing 100 μl of supernatant with an equal amount of BluePhos substrate (KPL). Samples were monitored for color development at 630 nm in a microwell plate reader. SEAP activity was calculated by subtracting the responses of cells transfected in parallel with pTAL-SEAP and normalizing to β-gal activity. Average SEAP activity was determined after subtracting the response of cells not expressing an OR and is reported in arbitrary units ± standard deviation.
# mouse Olfr73 [3] = biological target: T1, mouse Olfr73; assay: Calcium imaging of HEK293 cells expressing Olfr73 with Gs/olf, short 5-s odorant pulse; conditions: for Agonism/antagonism, HEK293 short odor Ca2+ Gs/olf: strong agonist 100 µM, putative antagonist 1 mM, single or as pair; for Effect on the response to eugenol or vanillin in a binary mix: agonist 100 µM, test ligand 1 mM
# mouse Olfr73 [4] = biological target: T1, mouse Olfr73; assay: cell-based; conditions: for Agonism/antagonism, HEK293 short odor Ca2+ Gq11: 5-s pulse, strong agonist 100 µM, putative antagonist 1 mM, single or as pair; for Response to ligand applied alone: HEK293, Gαq11/ß1/γ13, 5-s pulse
# mouse Olfr73 [5] = biological target: T1, mouse Olfr73; assay: Calcium imaging of HEK293 cells expressing Olfr73 with Gα15, short 5-s odorant pulse; conditions: for Agonism/antagonism, HEK293 short odor Ca2+ G15: 5-s pulse, strong agonist 100 µM, putative antagonist 1 mM, single or as pair; for Response to ligand applied alone: HEK293, Gα15, 5-s pulse; for Effect on the response to eugenol in a binary mix: HEK293, Gα15, eugenol 100 µM
# mouse Olfr73 [6] = biological target: T1, mouse Olfr73; assay: GCaMP3 calcium imaging of rat OSNs ectopically expressing Olfr73 (rAAV2/5), 5-s odorant pulse
# mouse Olfr73 [7] = biological target: T1, mouse Olfr73; assay: cAMP-dependent Ca2+ influx (CNGCmut, GCaMP3) in HEK293 cells with untagged Olfr73 and Gs/olf, 10-min odorant; conditions: for Response to ligand applied alone, prolonged: 10-min application; for Response to ligand applied alone, prolonged / Agonism/antagonism, HEK293 long odor Ca2+ Gs/olf: eugenol 100 µM, MIEG 1 mM; for Agonism/antagonism, HEK293 long odor Ca2+ Gs/olf: prolonged 10-min odorant application
# mouse Olfr73 [8] = biological target: T1, mouse Olfr73; assay: GCaMP3 calcium imaging of HEK293T cells co-transfected with pTR-Olfr73-furin2A-GCaMP3 (untagged Olfr73) and Gα15, 5-s pulse; conditions: for Response to ligand applied alone: HEK293T, untagged Olfr73, Gα15, 5-s pulse
# Olfr599 = Olfr599 (Mus musculus, UniProt Q8VG01); assay: GCaMP3 calcium imaging of mouse OSNs ectopically expressing Olfr599 (rAAV2/5); conditions: each at 100 µM, 5-s pulse
# Chain of Olfr599 (Q8VG01 entry or part of it): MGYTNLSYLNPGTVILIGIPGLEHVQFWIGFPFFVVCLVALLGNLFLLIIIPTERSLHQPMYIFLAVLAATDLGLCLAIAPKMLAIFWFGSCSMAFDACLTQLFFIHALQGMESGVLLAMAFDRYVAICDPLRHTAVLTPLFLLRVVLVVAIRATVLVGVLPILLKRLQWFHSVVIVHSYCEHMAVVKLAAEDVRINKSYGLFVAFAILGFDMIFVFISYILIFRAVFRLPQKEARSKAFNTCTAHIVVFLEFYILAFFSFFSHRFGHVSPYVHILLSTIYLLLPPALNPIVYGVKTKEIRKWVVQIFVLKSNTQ
# Description: Animals 4–6 weeks of age were used for experiments 7–21 days post-inoculation with rAAV2/5 encoding OR-furin2A-GCaMP3. Calcium imaging was performed as detailed previously. Tissue was prepared and mounted with the apical surface facing up. The chamber was transferred to the stage of an upright microscope (Zeiss Axioskop-2F) equipped with a 40×/0.75NA long distance water-immersion objective lens. Experimental solutions were applied for a duration of 5 s directly to the field of view through a 100 µm diameter needle made of fused silica and connected to a 9-channel Teflon manifold. Solution application was controlled by electronic valves (VC-6, Warner Instruments). The calcium response is presented as an increase of GCaMP3 fluorescence originating from the knob and underlying dendrite. The tissue was illuminated using a standard eGFP filter cube BP490 nm/ 535 nm (Omega Optical, USA) and the emitted light was collected at 530 nm (BP 530/20 nm, Omega Optical, USA) by a 12-bit cooled CCD camera (ORCA R2, Hamamatsu, Japan). […] Before processing, fluorescence intensity was corrected for the background. Each knob was assigned a region of interest (ROI) and changes in fluorescence intensity within each ROI were analyzed and expressed as the peak fractional change in fluorescent light intensity (F-Fo)/Fo where Fo is the baseline fluorescence before application of experimental solutions.
# [9] = HEK293, vanillin 100 µM, MIEG 1 mM
structure (smiles),measurement,setting,value
"C/C=C/c1ccc(OC)c(OC)c1 [Methylisoeugenol, methylisoeugenol]",Response to ligand applied alone,"mouse Olfr73 [1]; mouse Olfr73-OSNs, 5-s pulse",evoked a measurable response
same,Response to ligand applied alone,"mouse Olfr73 [1]; mouse Olfr73-OSNs, 5-s pulse, listed as MIEG",partial agonist
same,Response to ligand applied alone,"mouse Olfr73 [1]; mouse Olfr73-OSNs, 5-s pulse, listed as methylisoeugenol",also elicited a response
same,EC50,"mouse Olfr73 [1]; mouse Olfr73-OSNs, Ca2+ (GCaMP3), 5-s odorant pulse, read-out: EC50",430 ± 130 µM
same,Effect on the response to eugenol in a binary mix,"mouse Olfr73 [1]; mouse Olfr73-OSNs, listed as MIEG",did not reduce the response; also recorded: not significantly changed
same,"Agonism/antagonism, HEK293 long odor Cre/SEAP Gs/olf",mouse Olfr73 [2]; prolonged 30-min odorant application,Agonist
same,"Response to ligand applied alone, Cre-SEAP","mouse Olfr73 [2]; prolonged application, 0 µM eugenol",generated cAMP
same,"Interaction with eugenol in a binary mix, Cre-SEAP","mouse Olfr73 [2]; several concentrations of eugenol and MIEG, prolonged incubation",no antagonistic interaction
same,"Agonism/antagonism, HEK293 short odor Ca2+ Gs/olf",mouse Olfr73 [3]; 5-s pulse,Antagonist
same,Effect on the response to eugenol or vanillin in a binary mix,"mouse Olfr73 [3]; HEK293, Gs/olf",antagonized
same,"Agonism/antagonism, HEK293 short odor Ca2+ Gq11",mouse Olfr73 [4],Antagonist
same,"Effect on the response to vanillin, 30-s pre-incubation",mouse Olfr73 [4]; [9],near complete inhibition; also recorded: almost completely blocked
same,"Effect on the response to vanillin, co-application",mouse Olfr73 [4]; [9],only partially inhibited
same,"Agonism/antagonism, HEK293 short odor Ca2+ G15",mouse Olfr73 [5],Antagonist
same,"Effect on the response to vanillin, 30-sec pre-incubation","mouse Olfr73 [5]; HEK293, Gα15, vanillin 100 µM, MIEG 1 mM",complete inhibition
same,"Agonism/antagonism, OSN Ca2+ Rat","mouse Olfr73 [6]; 5-s pulse, strong agonist 100 µM, putative antagonist 1 mM",Agonist
same,"Response to ligand applied alone, prolonged",mouse Olfr73 [7],more slowly developing cAMP-dependent calcium influx; also recorded: significantly smaller than eugenol
same,"Response to mixture with eugenol versus eugenol alone, prolonged","mouse Olfr73 [7]; 10 min, eugenol 100 µM and MIEG 1 mM",no significant difference
same,"Agonism/antagonism, HEK293 long odor Ca2+ Gs/olf",mouse Olfr73 [7],Agonist
same,Response to ligand applied alone,mouse Olfr73 [8]; listed as MIEG,did not evoke any response; also recorded: did not elicit any response
same,Effect on the response to eugenol in a binary mix,"mouse Olfr73 [8]; eugenol 100 µM, MIEG 1 mM, 5-s pulse",reduced the response; also recorded: significantly diminished
CCCCCCCC=O [octanal],Response to ligand applied alone,Olfr599,evoked reliable neuronal responses
"C=CCc1ccc(O)c(OC)c1 [Eugenol, eugenol]",EC50,mouse Olfr73 [1],4.8 ± 1.1 µM
same,Response to ligand applied alone,"mouse Olfr73 [1]; mouse Olfr73-OSNs, 5-s pulse",strongly activated; also recorded: consistently evoked a response in all cells
same,EC50,"mouse Olfr73 [2]; HEK293 long odor, Cre/SEAP, Gs/olf, untagged Olfr73",205 ± 27 µM
same,"Agonism/antagonism, HEK293 short odor Ca2+ Gs/olf",mouse Olfr73 [3]; 5-s pulse,Agonist
same,Response to ligand applied alone,mouse Olfr73 [4],consistently activated calcium release
same,EC50,"mouse Olfr73 [4]; HEK293 short odor Ca2+, Gq11, response normalized to 5 mM eugenol",184 ± 62 µM
same,"Agonism/antagonism, HEK293 short odor Ca2+ G15",mouse Olfr73 [5],Agonist
same,EC50,mouse Olfr73 [6],41 ± 12 µM
same,Sensitivity of rat versus mouse Olfr73-OSNs,mouse Olfr73 [6]; from EC50 values,nearly tenfold less sensitive
same,"Response to ligand applied alone, prolonged",mouse Olfr73 [7],sustained cAMP-dependent calcium influx
same,"Agonism/antagonism, HEK293 long odor Ca2+ Gs/olf",mouse Olfr73 [7],Agonist
same,Response to ligand applied alone,mouse Olfr73 [8],robustly activated
same,Response to ligand applied alone,mouse Olfr73 [8]; listed as eugenol,robust elevation of intracellular calcium; also recorded: robust calcium signal
C=C(C)C1CC=C(C)C(=O)C1 (stereo not drawn) [Carvone],Response to ligand applied alone,"mouse Olfr73 [3]; HEK293, Gs/olf, 5-s pulse",did not activate any response
same,Effect on the response to eugenol or vanillin in a binary mix,"mouse Olfr73 [3]; HEK293, Gs/olf",no inhibiting effect
same,Response to ligand applied alone,mouse Olfr73 [4],non-agonist
same,Effect on the response to eugenol in a binary mix,"mouse Olfr73 [4]; HEK293, eugenol 100 µM, test ligand 1 mM, also with 30-s pre-incubation",no antagonism; also recorded: failed to antagonize
same,Response to ligand applied alone,mouse Olfr73 [5],non-agonist
same,Effect on the response to eugenol in a binary mix,mouse Olfr73 [5],incapable
C=CCc1cc(OC)c(O)c(-c2cc(CC=C)cc(OC)c2O)c1 [di-Eugenol],"Agonism/antagonism, OSN Ca2+ Mouse",mouse Olfr73 [1]; 5-s pulse,Inactive
same,Response to ligand applied alone,"mouse Olfr73 [1]; mouse Olfr73-OSNs, 5-s pulse",failed to activate any response
same,Response to ligand applied alone,"mouse Olfr73 [1]; mouse Olfr73-OSNs, 5-s pulse, listed as di-EG",did not elicit any response
same,"Agonism/antagonism, HEK293 short odor Ca2+ Gs/olf",mouse Olfr73 [3]; 5-s pulse,Antagonist
same,"Agonism/antagonism, HEK293 short odor Ca2+ Gq11",mouse Olfr73 [4],Antagonist
same,"Agonism/antagonism, HEK293 short odor Ca2+ G15",mouse Olfr73 [5],Antagonist
"COc1cc(C=O)ccc1O [Vanillin, vanillin]","Agonism/antagonism, HEK293 short odor Ca2+ Gs/olf",mouse Olfr73 [3]; 5-s pulse,Agonist
CCC1c2cc(OC)c(O)cc2C(c2ccc(O)c(OC)c2)C1C (stereo not drawn) [di-Isoeugenol],"Agonism/antagonism, OSN Ca2+ Mouse",mouse Olfr73 [1]; 5-s pulse,Inactive
same,Response to ligand applied alone,"mouse Olfr73 [1]; mouse Olfr73-OSNs, 5-s pulse, listed as di-IEG",did not elicit any response; also recorded: failed to activate any response
same,Effect on the response to eugenol in a binary mix,"mouse Olfr73 [1]; mouse Olfr73-OSNs, listed as di-IEG",not able to antagonize; also recorded: additive increase
same,"Agonism/antagonism, HEK293 short odor Ca2+ Gs/olf",mouse Olfr73 [3]; 5-s pulse,Antagonist
same,"Agonism/antagonism, HEK293 short odor Ca2+ Gq11",mouse Olfr73 [4],Antagonist
same,"Agonism/antagonism, HEK293 short odor Ca2+ G15",mouse Olfr73 [5],Antagonist
same,Response to ligand applied alone,mouse Olfr73 [5],is not an agonist
same,Effect on the response to eugenol in a binary mix,mouse Olfr73 [5],antagonizes eugenol
CC(=O)c1ccccc1 [acetophenone],Response to ligand applied alone,"mouse Olfr73 [1]; mouse Olfr73-OSNs, 5-s pulse",variable responses
C/C=C/c1ccc2c(c1)OCO2 [Isosafrole],"Agonism/antagonism, OSN Ca2+ Mouse",mouse Olfr73 [1]; 5-s pulse,Agonist
same,Response relative to the response to eugenol,"mouse Olfr73 [1]; ligand 1 mM, 5-s pulse, Olfr73-OSNs",25%
same,"Agonism/antagonism, HEK293 short odor Ca2+ Gs/olf",mouse Olfr73 [3]; 5-s pulse,Antagonist
same,"Agonism/antagonism, HEK293 short odor Ca2+ Gq11",mouse Olfr73 [4],Antagonist
same,"Agonism/antagonism, HEK293 short odor Ca2+ G15",mouse Olfr73 [5],Antagonist
"CCCCCOC(C)=O [Amyl acetate, amyl acetate]",Response to ligand applied alone,"mouse Olfr73 [1]; mouse Olfr73-OSNs, 5-s pulse",variable responses
